Measured values taken from patent US20110003772A1, “USE OF SPHINGOLIPIDS IN THE TREATMENT OF TYPE 2 DIABETES MELLITUS, INSULIN RESISTANCE AND METABOLIC SYNDROME” (priority 2004, published 2011).

Tests used:
PPAR-α = target: T1, PPAR-α (Homo sapiens, UniProt Q07869); conditions: literature, Van Veldhoven et al., 2000; cited from earlier work
T1 sequence (Q07869 1-468): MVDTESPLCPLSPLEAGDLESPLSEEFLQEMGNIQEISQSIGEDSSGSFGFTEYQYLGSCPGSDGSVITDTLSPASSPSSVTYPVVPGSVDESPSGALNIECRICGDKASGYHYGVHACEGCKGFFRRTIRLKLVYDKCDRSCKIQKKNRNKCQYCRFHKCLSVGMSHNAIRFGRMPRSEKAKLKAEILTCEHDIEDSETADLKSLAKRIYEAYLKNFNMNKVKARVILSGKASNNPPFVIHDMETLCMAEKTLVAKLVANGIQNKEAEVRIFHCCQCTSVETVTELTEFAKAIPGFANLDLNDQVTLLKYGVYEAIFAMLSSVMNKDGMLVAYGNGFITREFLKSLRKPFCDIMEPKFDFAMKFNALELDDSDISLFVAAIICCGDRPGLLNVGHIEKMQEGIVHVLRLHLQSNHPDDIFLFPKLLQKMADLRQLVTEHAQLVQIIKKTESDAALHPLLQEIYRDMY

3T3-L1 adipocytes = conditions: literature, Mei et al., 2002; cited from earlier work
female ob/ob mice [1] = assay: Hyperinsulinemic euglycemic clamp analysis in overnight fasted ob/ob mice; type: in vivo; conditions: 1% PS diet; for Glucose (plasma) during clamp: overnight fasted
Protocol: (§1) The “gold standard” for insulin resistance is a test called the hyperinsulinemic euglycemic clamp study. It is a complicated and expensive study in which insulin and glucose is infused intravenously at several different doses to see what levels of insulin control different levels of glucose. Essentially, the method of Koopmans et al., 2001 and Voshol et al., 2001.
(§2) All mice were fasted overnight and anaesthetised by intraperitoneal injection of Hypnorm® (fentanyl-fluanisone) (0.5 ml/kg body weight) and midazolam (12.5 mg/kg body weight). Mice were kept anaesthetised by administering 50 μl of Hypnorm®/midazolam subcutaneous every 45 minutes.
(§3) A needle filled with PBS was inserted into the tail vein and was connected to two pumps (Model 100 series, KdScienticic, PA, USA): one with an insulin solution consisting of 3057 μl PBS, 400 μl citrate (30 μg/μl) and 543 μl insulin (1 U/ml), and one pump with a solution of 6.25 g D-glucose in 50 ml PBS. Before the infusion with the two solutions was started, a capillary of blood was drawn from the tail tip. Subsequently a bolus of 30 μl of insulin was given and the pumps were started (50 μl/h). The mice were given rest for 30 minutes. Then every 10 minutes the glucose level was measured with a glucose handmeter (Freestyle, Disetronic Medical Systems AG, Burgdorf, Germany) and the glucose infusion rate was adjusted until the glucose concentration in the blood was constant for at least 20 minutes and a capillary of blood was drawn.
(§4) The insulin and glucose levels in the capillaries were measured using a standard commercial kit, according to the manufacturer's instructions (Hexokinase method, Instruchemie); and insulin levels were measured by Ultrasensitive mouse insulin ELISA, enzyme immunoassay according to the manufacturer's instructions (Mercodia, Sweden)
1.5 weeks after the last blood sample (necessary for full recovery of the mice) the ob/ob mice were fasted overnight and subjected to a hyperinsulinemic euglycemic clamp analysis. […]

female ob/ob mice [2] = assay: Plasma parameters and body weight in 4 h fasted ob/ob mice fed chow or chow with 1% phytosphingosine; type: in vivo; conditions: for Body weight: mean ± SD of 10 mice; for Glucose (plasma) / Insulin (plasma): 4 h fasted, mean ± SD
Protocol: 20 female ob/ob mice (C57B1/6 background) were obtained from Charles River, The Netherlands and were acclimatized for a period of 2 weeks within the TNO-facilities. After a 4 hour fast, blood was drawn by tail bleeding and the animals were randomized according to body weight and plasma glucose levels. […] The mice were put on a regular chow diet (control) or regular chow supplemented with 1% phytosphingosine (1% PS). After three weeks of treatment a blood sample was drawn after a 4 hours fast and body weight was determined. […] The 1% PS treated mice maintained their initial body weight. […] We observed no differences in insulin levels between the groups.

[3] = system: insulin resistant mice (male ApoE3*Leiden mice); assay: Hyperinsulinemic euglycemic clamp in insulin resistant mice on high fat, high fructose diet; type: in vivo; conditions: 0.3% (w/w) in high fat, compared to control group
From the text: as §1
Male ApoE3*Leiden mice were fed with a high fat, high fructose diet (24% casein, 17% corn starch, 14% cellulose, 1% cholesterol, 24% bovine lard, 20% fructose; all w/w). After 8 weeks all mice in this group were moderately insulin resistant and were strongly insulin resistant after 18 weeks. Two parallel groups of mice (n=8) were fed for another 10 weeks the same diet, but containing 0.3% (w/w of the dry food) of either egg sphingomyelin or phytosphingosine.
In another parallel experiment, three groups of 8 mice each were fed the same high fat, high fructose diet for 18 weeks. One group received 0.3% egg sphingomyelin during the whole period, one group received 0.3% phytosphingosine during the whole period and the last group served as the control group (i.e. received no additional sphingolipid).
as §2, §3, §4

[4] = T = 0 (starting point, before treatment), 1% PS group
[5] = T = 3 (3 weeks of chow with 1% PS)
[6] = high fructose diet during the last 10 weeks of the 18 week experiment
[7] = high fructose diet during whole 18 weeks

Question: Which “binding to the PPAR-α receptor” value (PPAR-α) does the source give for `CCCCCCCCCCCCC/C=C/[C@@H](O)[C@H](CO)NC(=O)CCCCCCCCCCCCCCC` [N-hexadecanoyl-sphingenine] here?
Answer: not able to bind

Question: Which “antilipolytic action of insulin” value (3T3-L1 adipocytes) does the source give for `CCCCCCCCCCCCC/C=C/[C@@H](O)[C@H](CO)NC(C)=O` [C2-ceramide] here?
Answer: decrease the antilipolytic action of insulin

Question: And the lipolysis (3T3-L1 adipocytes)?
Answer: stimulate lipolysis

Question: Which “binding to the PPAR-α receptor” value (PPAR-α) does the source give for `CCCCCCCCCCCCCCC[C@@H](O)[C@@H](N)COP(=O)(O)O` [sphinganine-1-phosphate] here?
Answer: not able to bind

Question: Which “binding to the PPAR-α receptor” value (PPAR-α) does the source give for ceramide here?
Answer: not able to bind

Question: For phosphatidylcholine, which “binding to the PPAR-α receptor” value (PPAR-α) is on record?
Answer: not able to bind

Question: Which “binding to the PPAR-α receptor” value (PPAR-α) does the source give for `CCCCCCCCCCCCC/C=C/[C@@H](O)[C@@H](N)CO` [sphingenine] here?
Answer: strong binding ligands

Question: Which “binding to the PPAR-α receptor” value (PPAR-α) does the source give for `CCCCCCCCCCCCC/C=C/[C@@H](O)[C@H](CO)NC(C)=O` [N-acetyl-sphingenine] here?
Answer: not able to bind

Question: With `CCCCCCCCCCCCCC[C@@H](O)[C@@H](O)[C@@H](N)CO` [phytosphingosine] as the compound, how does the “glucose infusion rate (GIR)” value (female ob/ob mice [1]; vs. 46±8 in control ob/ob mice, P=0.001) read?
Answer: 4.5 ± 0.96 mL/h/kg

Question: And the “Glucose (plasma) during clamp” value (female ob/ob mice [1]; Basal period (no insulin added))?
Answer: 7.3 ± 2.4 mmol/L

Question: What about the “Glucose (plasma) during clamp” value (female ob/ob mice [1]; Hyperinsulinemic period) of the same compound?
Answer: 4.8 ± 1.3 mmol/L

Question: And the Body weight (female ob/ob mice [2]; [4])?
Answer: 42.2 ± 4.6 g

Question: What about the “Glucose (plasma)” value (female ob/ob mice [2]; [4]) of the same compound?
Answer: 23.9 ± 5.1 mmol/L

Question: What about the “Insulin (plasma)” value (female ob/ob mice [2]; [4]) of the same compound?
Answer: 25.8 ± 14.1 ng/mL

Question: What about the “Insulin (plasma)” value (female ob/ob mice [2]; [5]) of the same compound?
Answer: 22.3 ± 6.8 ng/mL

Question: And the “Glucose (plasma)” value (female ob/ob mice [2]; T = 3 (3 weeks of chow with 1% PS), P < 0.01 vs. control)?
Answer: 26.0 ± 7.0 mmol/L

Question: And the Body weight (female ob/ob mice [2]; [5])?
Answer: 41.7 ± 3.7 g

Question: And the “infusion rate of glucose, percentage of the infusion rate in strongly insulin resistant control mice” value [3, 6]?
Answer: 114%

Question: And the “infusion rate of glucose, percentage of the infusion rate in strongly insulin resistant control mice” value [3, 7]?
Answer: 102%

Question: What does the source list for sphingomyelin?
Answer: binding to the PPAR-α receptor (PPAR-α): not able to bind; infusion rate of glucose, percentage of the infusion rate in strongly insulin resistant control mice [3, 6]: 102%; infusion rate of glucose, percentage of the infusion rate in strongly insulin resistant control mice [3, 7]: 117%

Question: For `CCCCCCCCCCCCCCC[C@@H](O)[C@@H](N)CO` [sphinganine], which “binding to the PPAR-α receptor” value (PPAR-α) is on record?
Answer: strong binding ligands
